In test [1] the test system is PLA2-GIB. As to the kind of experiment: PLA2-GIB enzymatic assay on [3H] arachidonic acid labelled Jurkat E6.1 T cells. Format: cell-based, human. The procedure: Jurkat E6.1 T cells (ECACC 88042803) or gC1qR KO Jurkat E6.1 T cells were incubated for 17 h at 5×10^5 cells/ml with 1 μCi/ml of arachidonic acid [5,6,8,9,11,14,15-^3H(N)] (Perkin Elmer, NET298Z250UC) in RPMI 1640 medium (Lonza) supplemented with 10% FBS, 50 mM HEPES pH 7.4, glutamine, penicillin, streptomycin and fungizone at 2 ml/well in 6-well plates at 37° C. in a 5% CO2 humidified atmosphere. Cells were washed twice with RPMI with 10% FBS by centrifugation at 300×g for 10 minutes at room temperature and then frozen in 90% FBS 10% DMSO at 10^7 cells/ml/vial at −80° C. Percent of [3H] arachidonic acid in CD4 T cells is the (1 minus ratio of [3H] arachidonic acid in the supernatant of CD4 T cells without cells (cpm/ml) on total [3H] arachidonic acid in supernatant and cells (cpm/ml).
To test PLA2-GIB activity on [3H] arachidonic acid labelled Jurkat E6.1 T lymphocytes, cells were unfrozen in 10% FBS RPMI preheated at 37° C. by centrifugation at 300×g for 10 minutes at room temperature, washed twice in 2.5% FBS RPMI, and equilibrated at 5×10^4 or 10^5 Jurkat E6.1 T cells/400 μl/well in 24-well polystyrene plates for 1 h30 at 37° C. in a 5% CO2 humidified atmosphere. Then HCV core solution or vehicle dilution in 2.5% FBS RPMI at 5.95 μM was mixed with an equal volume of a PLA2GIB solution at 630 nM or 2 μM 2.5% FBS RPMI and 100 μl were added per well at the same time for 2 h. For peptide treatments, cells were pretreated for 2 h, 4 h or 21 h, as indicated on figures, with 50 μl per well of peptide solutions at 110 μM or 55 μM in 2.5% FBS RPMI. Then 50 μl per well of PLA2-GIB at 630 nM or 2 μM 2.5% FBS RPMI or medium alone were added for 2 h. Cells and supernatant were collected in eppendorf tubes and centrifuged at 580×g for 10 minutes at room temperature. The [3H] arachidonic acid released in cell supernatant was quantified in 300 μl with 16 ml of Ultima gold (Perkin Elmer, 6013329) in low diffusion vials (Perkin Elmer, 6000477) on a counter (tri-Carb 2800 TR liquid scintillation analyzer, Perkin Elmer).

The target in test [2] is T1, gC1qR (Homo sapiens, UniProt Q07021).
T1 sequence (Q07021 74-282): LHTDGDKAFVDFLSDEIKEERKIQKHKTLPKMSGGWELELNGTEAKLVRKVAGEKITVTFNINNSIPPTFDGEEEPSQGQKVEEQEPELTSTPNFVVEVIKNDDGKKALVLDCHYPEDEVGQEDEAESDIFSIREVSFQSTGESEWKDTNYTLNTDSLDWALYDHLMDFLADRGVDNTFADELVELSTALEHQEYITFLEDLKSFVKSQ
As to the kind of experiment: gC1qR-peptides binding assay (ELISA on microplates). To be noted: peptide coated, His-tag-gC1qR 0 to 3 μg/well, FIG. 12. The method, then:
The unbound protein was removed; the wells washed 2× with TBST (20 mM Tris-HCl pH 7.5, 150 mM NaCl, and 0.05% Tween-20) and the unreacted sites blocked by incubation (30 min, room temp) with 300 μl of 3% BSA in TBST. After washing (2× with TBST), the microtiter plate bound peptides was incubated (2 h, room temp.) with different amount of His-tag-gC1qR ranging from 0 to 3 μg/well in triplicate. After washing (5 times with TBST), 100 μl of anti-His tag-HRP antibody (1:1000; 71840-3, Merck) in 3% BSA in TBST was added per well and incubated for 2 h at room temperature. Microplates wells were then washed (5 times with TBST) and 100 μl of TMB ELISA substrate standard solution (UP664781, Interchim) was added per well. Reaction was stopped with 100 μl per well of a H2SO4 solution at 0.16M and OD at 450 nm was measured on a microplate reader (Tecan Infinite M1000 Pro).
A scrambled peptide or a control peptide were used as control.

As for “NH2-PWNASWSNKSLDDIW—COOH (H-PWNASWSNKSLDDIW-OH) [PEP3]”, the “PLA2-GIB activity vs scrambled PEP3” value in test [1] (Jurkat E6.1 WT cells, pretreatment 21 h, FIG. 13) is “increased significantly”. Besides, in test [1] (pretreatment 4 h or more with peptide 11 μM, 200 nM PLA2-GIB, FIG. 11), the “PLA2-GIB activity on the membrane of Jurkat E6.1 T cells vs scrambled PEP3” value is given as “significantly increased”. Besides, the “binding to gC1qR” value in test [2] is on record as “binds”.

The values above are taken from patent publication US20200399392A1, “INHIBITORS OF PLA2-G1B COFACTORS FOR TREATING CANCER” (priority 2018, published 2020).
